{"source": "paper PMC7031696", "about": "(Cell chemical biology, 2019)", "system": "3D7-MR4 trophozoite parasite-infected RBCs", "assay": "Metabolomic profiling (hydrophilic metabolite changes, UHPLC-MS)", "format": "cell-based, Plasmodium falciparum", "data": [{"molecule": "CN(C)Cc1ccc(-c2cc3c(-c4ccc(CN(C)C)cc4)ccnc3[nH]2)cc1.O=C(O)C(F)(F)F", "note": "[MMV022224]", "values": [{"measurement": "Log2(fold changes) adenosine", "setting": "metabolite adenosine, log2 fold change", "value": 0.0000}, {"measurement": "Log2(fold changes) alanine/sarcosine", "setting": "metabolite alanine/sarcosine, log2 fold change", "value": 0.0223}, {"measurement": "Log2(fold changes) anthranilate", "setting": "metabolite anthranilate, log2 fold change", "value": 0.0000}, {"measurement": "Log2(fold changes) arginine", "setting": "metabolite arginine, log2 fold change", "value": 0.0000}, {"measurement": "Log2(fold changes) asparagine", "setting": "metabolite asparagine, log2 fold change", "value": 0.2620}, {"measurement": "Log2(fold changes) aspartate", "setting": "metabolite aspartate, log2 fold change", "value": -0.0524}, {"measurement": "Log2(fold changes) biotin", "setting": "metabolite biotin, log2 fold change", "value": 0.0000}, {"measurement": "Log2(fold changes) cCMP", "setting": "metabolite cCMP, log2 fold change", "value": 0.0000}, {"measurement": "Log2(fold changes) cGMP", "setting": "metabolite cGMP, log2 fold change", "value": 0.0000}, {"measurement": "Log2(fold changes) carnitine", "setting": "metabolite carnitine, log2 fold change", "value": 0.0000}, {"measurement": "Log2(fold changes) citrate/isocitrate", "setting": "metabolite citrate/isocitrate, log2 fold change", "value": -0.2505}, {"measurement": "Log2(fold change) of coenzyme A", "setting": "metabolite coenzyme A", "value": -0.6694}, {"measurement": "Log2(fold change) of cyclic-AMP", "setting": "metabolite cyclic-AMP", "value": 0.0000}, {"measurement": "Log2(fold change) of cytidine", "setting": "metabolite cytidine", "value": 0.1493}, {"measurement": "Log2(fold change) of dAMP", "setting": "metabolite dAMP", "value": 0.0000}, {"measurement": "Log2(fold change) of dATP", "setting": "metabolite dATP", "value": -0.1042}, {"measurement": "Log2(fold change) of dCDP", "setting": "metabolite dCDP", "value": -0.6243}, {"measurement": "Log2(fold change) of dCMP", "setting": "metabolite dCMP", "value": -0.5224}, {"measurement": "Log2(fold change) of dCTP", "setting": "metabolite dCTP", "value": -0.4073}, {"measurement": "Log2(fold change) of dGDP/ADP", "setting": "metabolite dGDP/ADP", "value": -0.4184}, {"measurement": "Log2(fold change) of dGMP/AMP", "setting": "metabolite dGMP/AMP", "value": -0.2434}, {"measurement": "Log2(fold change) of dGTP/ATP", "setting": "metabolite dGTP/ATP", "value": -0.1490}, {"measurement": "Log2(fold change) of dTDP", "setting": "metabolite dTDP", "value": 0.0000}, {"measurement": "Log2(fold change) of dTMP", "setting": "metabolite dTMP", "value": -0.1539}, {"measurement": "Log2(fold change) of dTTP", "setting": "metabolite dTTP", "value": -0.2628}, {"measurement": "Log2(fold change) of dUMP", "setting": "metabolite dUMP", "value": 0.0000}, {"measurement": "Log2(fold change) of dUTP", "setting": "metabolite dUTP", "value": 0.0000}, {"measurement": "Log2(fold change) of deoxyguanosine", "setting": "metabolite deoxyguanosine", "value": 0.0000}, {"measurement": "Log2(fold change) of deoxyinosine", "setting": "metabolite deoxyinosine", "value": 0.0000}, {"measurement": "Log2(fold change) of deoxyribose-phosphate", "setting": "metabolite deoxyribose-phosphate", "value": 0.0000}, {"measurement": "Log2(fold change) of deoxyuridine", "setting": "metabolite deoxyuridine", "value": 0.0000}, {"measurement": "Log2(fold change) of dihydroorotate", "setting": "metabolite dihydroorotate", "value": 0.4231}, {"measurement": "Log2(fold change) of folate", "setting": "metabolite folate", "value": 0.2103}, {"measurement": "Log2(fold change) of fructose-1-6-bisphosphate", "setting": "metabolite fructose-1-6-bisphosphate", "value": -0.0559}, {"measurement": "Log2(fold change) of fructose-6-phosphate", "setting": "metabolite fructose-6-phosphate", "value": 0.0000}, {"measurement": "Log2(fold change) of fumarate", "setting": "metabolite fumarate", "value": -0.4743}, {"measurement": "Log2(fold change) of glucono-lactone", "setting": "metabolite glucono-lactone", "value": 0.0000}, {"measurement": "Log2(fold change) of glucose-1/6-phosphate", "setting": "metabolite glucose-1/6-phosphate", "value": 0.0000}, {"measurement": "Log2(fold change) of glutamate", "setting": "metabolite glutamate", "value": -0.2593}, {"measurement": "Log2(fold change) of glutamine", "setting": "metabolite glutamine", "value": 0.1154}, {"measurement": "Log2(fold change) of glutathione", "setting": "metabolite glutathione", "value": -0.5102}, {"measurement": "Log2(fold change) glutathione disulfide", "setting": "metabolite glutathione disulfide", "value": -0.1758}, {"measurement": "Log2(fold change) glycerate", "setting": "metabolite glycerate", "value": 0.0000}, {"measurement": "Log2(fold change) guanine", "setting": "metabolite guanine", "value": -0.4489}, {"measurement": "Log2(fold change) guanosine", "setting": "metabolite guanosine", "value": 0.0000}, {"measurement": "Log2(fold change) histidine", "setting": "metabolite histidine", "value": 0.2818}, {"measurement": "Log2(fold change) homocysteic acid", "setting": "metabolite homocysteic acid", "value": 0.0000}, {"measurement": "Log2(fold change) hydroxyphenylpyruvate", "setting": "metabolite hydroxyphenylpyruvate", "value": 0.0000}, {"measurement": "Log2(fold change) hydroxyproline/Aminolevulinate", "setting": "metabolite hydroxyproline/Aminolevulinate", "value": -0.0239}, {"measurement": "Log2(fold change) hypoxanthine", "setting": "metabolite hypoxanthine", "value": 0.0610}, {"measurement": "Log2(fold change) indole", "setting": "metabolite indole", "value": 0.8345}, {"measurement": "Log2(fold change) inosine", "setting": "metabolite inosine", "value": -0.1646}, {"measurement": "Log2(fold change) isoleucine", "setting": "metabolite isoleucine", "value": -0.1407}, {"measurement": "Log2(fold change) lactate", "setting": "metabolite lactate", "value": -0.4343}, {"measurement": "Log2(fold change) leucine", "setting": "metabolite leucine", "value": 0.0081}, {"measurement": "Log2(fold change) lysine", "setting": "metabolite lysine", "value": 0.0000}, {"measurement": "Log2(fold change) malate", "setting": "metabolite malate", "value": -0.4038}, {"measurement": "Log2(fold change) maleic acid", "setting": "metabolite maleic acid", "value": -0.3811}, {"measurement": "Log2(fold change) methionine", "setting": "metabolite methionine", "value": 0.2971}, {"measurement": "Log2(fold change) myo-inositol", "setting": "metabolite myo-inositol", "value": 0.0000}, {"measurement": "Log2(fold change) nicotinamide mononucleotide", "setting": "metabolite nicotinamide mononucleotide", "value": 0.0000}, {"measurement": "Log2(fold change) nicotinate", "setting": "metabolite nicotinate", "value": -0.4667}, {"measurement": "Log2(fold change) ornithine", "setting": "metabolite ornithine", "value": 0.0000}, {"measurement": "Log2(fold change) orotate", "setting": "metabolite orotate", "value": -0.1913}, {"measurement": "Log2(fold change) orotidine-5'-phosphate", "setting": "metabolite orotidine-5'-phosphate", "value": -0.1124}, {"measurement": "Log2(fold change) oxaloacetate", "setting": "metabolite oxaloacetate", "value": 0.0000}, {"measurement": "Log2(fold change) p-aminobenzoate", "setting": "metabolite p-aminobenzoate", "value": 0.0000}, {"measurement": "Log2(fold change) p-hydroxybenzoate", "setting": "metabolite p-hydroxybenzoate", "value": 0.0000}, {"measurement": "Log2(fold change) pantothenate", "setting": "metabolite pantothenate", "value": -0.1562}, {"measurement": "Log2(fold change) phenylalanine", "setting": "metabolite phenylalanine", "value": -0.0454}, {"measurement": "Log2(fold change) phenylpyruvate", "setting": "metabolite phenylpyruvate", "value": 0.0000}, {"measurement": "Log2(fold change) phosphoenolpyruvate", "setting": "metabolite phosphoenolpyruvate", "value": -0.1663}, {"measurement": "Log2(fold change) prephenate", "setting": "metabolite prephenate", "value": 0.0000}, {"measurement": "Log2(fold change) proline", "setting": "metabolite proline", "value": -0.1446}, {"measurement": "Log2(fold change) pyridoxine", "setting": "metabolite pyridoxine", "value": 0.0000}, {"measurement": "Log2(fold change) pyruvate", "setting": "metabolite pyruvate", "value": -0.5314}, {"measurement": "Log2(fold change) riboflavin", "setting": "metabolite riboflavin", "value": 0.4707}, {"measurement": "Log2(fold change) ribose", "setting": "metabolite ribose", "value": 0.0000}, {"measurement": "Log2(fold change) ribose-phosphate", "setting": "metabolite ribose-phosphate", "value": 0.0000}, {"measurement": "Log2(fold change) ribulose-5-phosphate", "setting": "metabolite ribulose-5-phosphate", "value": -0.0752}, {"measurement": "Log2(fold change) serine", "setting": "metabolite serine", "value": 0.2570}, {"measurement": "Log2(fold change) sn-glycerol-3-phosphate", "setting": "metabolite sn-glycerol-3-phosphate", "value": 0.2730}, {"measurement": "Log2(fold change) succinate/Methylmalonic acid", "setting": "metabolite succinate/Methylmalonic acid", "value": -0.4610}, {"measurement": "Log2(fold change) succinyl-CoA/methylmalonyl-CoA", "setting": "metabolite succinyl-CoA/methylmalonyl-CoA", "value": -0.1003}, {"measurement": "Log2(fold change) taurine", "setting": "metabolite taurine", "value": 0.0000}, {"measurement": "Log2(fold change) thiamine", "setting": "metabolite thiamine", "value": 0.0000}, {"measurement": "Log2(fold change) threonine/homoserine", "setting": "metabolite threonine/homoserine", "value": 0.2231}, {"measurement": "Log2(fold change) thymidine", "setting": "metabolite thymidine", "value": 0.0000}, {"measurement": "Log2(fold changes) thymine", "setting": "metabolite thymine, log2 fold change", "value": 0.0000}, {"measurement": "Log2(fold changes) trehalose-6-Phosphate", "setting": "metabolite trehalose-6-Phosphate, log2 fold change", "value": 0.0000}, {"measurement": "Log2(fold changes) tryptophan", "setting": "metabolite tryptophan, log2 fold change", "value": 0.5432}, {"measurement": "Log2(fold changes) tyrosine", "setting": "metabolite tyrosine, log2 fold change", "value": 0.1420}, {"measurement": "Log2(fold changes) uridine", "setting": "metabolite uridine, log2 fold change", "value": 0.0000}, {"measurement": "Log2(fold changes) valine", "setting": "metabolite valine, log2 fold change", "value": -0.1357}, {"measurement": "Log2(fold changes) xanthine", "setting": "metabolite xanthine, log2 fold change", "value": 0.0000}, {"measurement": "Log2(fold changes) xanthosine-5-phosphate", "setting": "metabolite xanthosine-5-phosphate, log2 fold change", "value": -0.1792}, {"measurement": "Log2(fold changes) xanthosine", "setting": "metabolite xanthosine, log2 fold change", "value": -1.8994}, {"measurement": "Log2(fold changes) xylose", "setting": "metabolite xylose, log2 fold change", "value": 0.0000}]}]}
